{
  "source": "ChEMBL document CHEMBL1123450",
  "about": "“A theoretical study of the binding of polychlorinated biphenyls (PCBs), dibenzodioxins, and dibenzofuran to human plasma prealbumin” (J Med Chem, 1986)",
  "data": [
    {"test": "KPCB/ K352 ratio of the compound", "values": [
      {"smiles": "Oc1ccc(-c2c(Cl)cc(Cl)cc2Cl)cc1", "Ratio": 2.91},
      {"smiles": "Oc1c(I)cc(I)cc1I", "Ratio": 33.8},
      {"smiles": "Oc1c(Cl)cc(Cl)cc1-c1ccccc1", "Ratio": 1},
      {"smiles": "Clc1cc(-c2cc(Cl)c(Cl)c(Cl)c2)cc(Cl)c1Cl", "Ratio": 27.7},
      {"smiles": "Oc1c(Cl)cc(-c2ccccc2)cc1Cl", "Ratio": 45},
      {"smiles": "Oc1c(Cl)cc(-c2cc(Cl)c(O)c(Cl)c2)cc1Cl", "Ratio": 45.5},
      {"smiles": "O=C1C(Cl)=CC(=C2C=C(Cl)C(=O)C(Cl)=C2)C=C1Cl", "Ratio": 2.92},
      {"smiles": "Oc1ccc(-c2cc(Cl)c(Cl)c(Cl)c2Cl)cc1", "Ratio": 24.3},
      {"smiles": "Oc1c(Cl)cc(-c2ccc(Cl)cc2)cc1Cl", "Ratio": 27.5}
    ]}
  ]
}
